Columns and labels:
[1] = test system: HIV-1Ba-L; test: Anti-HIV efficacy evaluation in fresh human PBMCs (reverse transcriptase activity readout); format: cell-based
Protocol: Anti-HIV Efficacy Evaluation in Fresh Human PBMCs Assay Protocol:
Fresh human PBMCs, seronegative for HIV and HBV, are isolated from screened donors (Biological Specialty Corporation, Colmar, Pa.). Cells are pelleted/washed 2-3 times by low speed centrifugation and re-suspension in PBS to remove contaminating platelets. […] Banded PBMCs are gently aspirated from the resulting interface and subsequently washed 2× with PBS by low speed centrifugation. […] The cells are allowed to incubate for 48-72 hours at 37° C. […] IL-2 is included in the culture medium to maintain the cell division initiated by the PHA mitogenic stimulation. PBMCs are maintained in this medium at a concentration of 1-2×10^6 cells/mL with biweekly medium changes until used in the assay protocol. Cells are kept in culture for a maximum of two weeks before being deemed too old for use in assays and discarded. MDMs are depleted from the culture as the result of adherence to the tissue culture flask.
For the standard PBMC assay, PHA stimulated cells from at least two normal donors are pooled (mixed together), diluted in fresh medium to a final concentration of 1×10^6 cells/mL, and plated in the interior wells of a 96 well round bottom microplate at 50 uL/well (5×10^4 cells/well) in a standard format developed by the Infectious Disease Research department of Southern Research Institute. Pooling (mixing) of mononuclear cells from more than one donor is used to minimize the variability observed between individual donors, which results from quantitative and qualitative differences in HIV infection and overall response to the PHA and IL-2 of primary lymphocyte populations. Each plate contains virus/cell control wells (cells plus virus), experimental wells (drug plus cells plus virus) and compound control wells (drug plus media without cells, necessary for MTS monitoring of cytotoxicity). […] Therefore, infected wells are used in the assessment of both antiviral activity and cytotoxicity. Test drug dilutions are prepared at a 2× concentration in microtiter tubes and 100 μL of each concentration (nine total concentrations) are placed in appropriate wells using the standard format. 50 μL of a predetermined dilution of virus stock is placed in each test well (final MOI˜=0.1). The PBMC cultures are maintained for seven days following infection at 37° C., 5% CO2. After this period, cell-free supernatant samples are collected for analysis of reverse transcriptase activity and/or p24 antigen content. Following removal of supernatant samples, compound cytotoxicity is measured by addition of MTS to the plates for determination of cell viability. Wells are also examined microscopically and any abnormalities are noted.
Reverse Transcriptase Activity Assay Protocol:
Tritiated thymidine triphosphate (^3H-TTP, 80 Ci/mmol, NEN) is received in 1:1 dH2O:Ethanol at 1 mCi/mL. Poly rA:oligo dT template:primer (GE Healthcare) is prepared as a stock solution by combining 150 μL poly rA (20 mg/mL) with 0.5 mL oligo dT (20 units/mL) and 5.35 mL sterile dH2O followed by aliquoting (1.0 mL) and storage at −20° C. The RT reaction buffer is prepared fresh on a daily basis and consists of 125 μL 1.0 M EGTA, 125 μL dH2O, 125 μL 20% Triton X100, 50 μL 1.0 M Tris (pH 7.4), 50 μL 1.0 M DTT, and 40 μL 1.0 M MgCl2. The final reaction mixture is prepared by combining 1 part ^3H-TTP, 4 parts dH2O, 2.5 parts poly rA:oligo dT stock and 2.5 parts reaction buffer. Ten microliters of this reaction mixture is placed in a round bottom microtiter plate and 15 μL of virus containing supernatant is added and mixed. The plate is incubated at 37° C. for 60 minutes. Following incubation, the reaction volume is spotted onto DE81 filter-mats (Wallac), washed 5 times for 5 minutes each in a 5% sodium phosphate buffer or 2×SSC (Life Technologies).

[2] = test system: Tat-mediated activation of the HIV-LTR promoter; test: TAT-mediated transactivation, HIV-LTR-Luc reporter; format: cell-based, HIV-1
Protocol: SupT1 cells were transfected with a HIV-LTR-Luc construct (LAI), +/−Tat (pcTAT, subtype B), along with a constitutively active renilla-luciferase construct (to normalize for transfection efficiency). Firefly and renilla activity were monitored (sequentially, same sample) 24 hours post transfection. DMSO was used as a negative control; and Compound 9 was added at 1, 0.1, and 0.001 μM. These reactions were done in singlet (pilot). TZM-bl cells are HeLa derived cells that contain CD4, CCR5, and an integrated HIV promoter (LTR) fused to firefly luciferase. Untransfected cells (LTR) or Tat-transfected cells (LTR+TAT) were incubated with Compound 9 at the indicated doses at the time of transfection. DMSO was used as a negative control. Luciferase activity was measured 20 hours post-transfection using a commercially-available luciferase substrate (Promega) and the results are shown in FIG. 8. […] Repeat results are illustrated in Tat-Experiment 2 graph.

[3] = test system: VSVg-pseudotyped NL4-3.Luc.E-R- virus; test: microbe, parasite or virus in culture; format: cell-based, HIV-1; details: Human immunodeficiency virus 1, NL43, SUP-T1, read-out: EC50 of inhibition of HIV replication
[4] = test system: Hepatitis B Virus (HBV); test: Anti-HBV assay, real-time qPCR of extracellular HBV DNA in HepG2 2.2.15; format: cell-based
Protocol: The anti-HBV assay employed real-time qPCR (TaqMan) to directly measure extracellular HBV DNA copy number. HepG2-2.2.15 cells were plated in 96-well microtiter plates. Only the interior wells were utilized to reduce “edge effects” observed during cell culture; the exterior wells were filled with complete medium to help minimize sample evaporation. After 16-24 hours the confluent monolayer of HepG2-2.2.15 cells was washed and the medium replaced with complete medium containing various concentrations of a test compound in triplicate. 3TC was used as positive control, while media alone was added to cells as negative control (virus control, VC). Three days later the culture medium was replaced with fresh medium containing the appropriately diluted drug. Six days following the initial administration of the test compound, the cell culture supernatant collected, treated with pronase and then used in a real-time quantitative TaqMan qPCR assay. The PCR-amplified HBV DNA was detected in real-time by monitoring increases in fluorescence signals that result from the exonucleolytic degradation of a quenched fluorescent probe molecule that hybridizes to the amplified HBV DNA. For each PCR amplification, a standard curve was simultaneously generated using dilutions of purified HBV DNA. Antiviral activity was calculated from the reduction in HBV DNA levels (IC50). CellTiter 96® AQueous One Solution Cell Proliferation Assay kit (Promega) was employed to measure cell viability which was used to calculate cytotoxicity (TC50). The therapeutic index (TI) was calculated as TC50/IC50.

For `CC1(C)CC(=O)c2c(C(F)(F)F)nn(-c3ccc(C(N)=O)c(N[C@H]4CC[C@H](O)CC4)c3)c2C1` [Compound 9, 4-(6,6-Dimethyl-4-oxo-3-trifluoromethyl-4,5,6,7-tetrahydro-indazol-1-yl)-2-(trans-4-hydroxy-cyclohexylamino)-benzamide], the “IC 95% (95% inhibition of virus replication)” value ([1]; HIV-1Ba-L in PBMCs) was 11 nM, the “Selectivity Index TI (TC50/IC50)” value ([1]; HIV-1Ba-L in PBMCs, 50%) was 1.5 and the “Selectivity index (TI) 90%” value ([1]; HIV-1Ba-L in PBMCs, TC90/IC90) was over 22.1. The “Selectivity index (TI) 95%” value ([1]; HIV-1Ba-L in PBMCs, TC95/IC95) was over 18.2, the IC50 ([1]; Human immunodeficiency virus 1, PBMC, 168 h, read-out: Antiviral Activity IC50 (50% inhibition of virus replication), HIV-1Ba-L in PBMCs, seven days) was 20 nM and the IC90 ([1]; Human immunodeficiency virus 1, PBMC, read-out: IC 90% (90% inhibition of virus replication)) was 90 nM. The Tat-mediated transactivation [2] was “inhibit”, the EC50 [3] was 10 nM and the “Activity against hepatitis B virus (in words)” value [4] was “inactive”. For the same molecule, the “Selectivity Index TI (TC50/IC50)” value ([4]; HBV in HepG2 2.2.15) was 0.12, the IC50 ([4]; Hepatitis B virus, 144 h, HBV in HepG2 2.2.15, six days, read-out: Antiviral Activity IC50 (reduction in HBV DNA levels)) was 600 nM and the IC90 ([4]; Hepatitis B virus, HBV in HepG2 2.2.15) was over 2000 nM.

From patent US20160143884A1, “USE OF TETRAHYDROINDAZOLYLBENZAMIDE AND TETRAHYDROINDOLYLBENZAMIDE DERIVATIVES FOR THE TREATMENT OF HUMAN IMMUNODEFICIENCY VIRUS (HIV) AND ACQUIRED IMMUNE DEFICIENCY SYNDROME (AIDS)” (Esanex, Inc., priority 2014, published 2016)
